Assay results: patent US20030154499A1, “Mouse unable to express functional alpha-4 integrin protein, and methods for assaying compounds or agents for alpha-4 integrin protein antagonist activity and a genetic marker for evaluating efficacy of modulators of signaling activity of a VLA-4 receptor” (priority 2001, published 2003)

Experiments:
Type in all cases: in vivo
[1] = tested on: M. musculus mRNA for macrophage mannose receptor; assay: Taqman analysis of macrophage mannose receptor mRNA in brain and spleen of treated EAE mice
Procedure: (§1) In these experiments, EAE (experimental allergic encephalomyelitis) mice were used. The EAE mouse is an animal model for Central Nervous System (CNS) autoimmune disease. It is widely used as a human Multiple Sclerosis (MS) model.
(§2) EAE mice (see protocol below) vehicle only treated and treated with IVL984 or HMR1031 for 14 days (5 mice per group) were sacrificed by cervical dislocation. The brain was aseptically removed and the RNA was prepared using a standard Trizol (Invitrogen) prep (protocol see below). The prepped RNA was run on an agarose gel to determine the quality of the RNA and quantified by UV spec analysis. Taqman analysis was performed using sequence specific primers and probes (sequence see below).
(§3) PLP139-151 peptide is dissolved in H2O:PBS (1:1) solution to a concentration 5 mg/10 ml (for 50 ug PLP per mouse) or 7.5 mg/10 ml (for 75 ug PLP per group) and emulsified with an equal volume of CFA supplemented with 40 mg/10 ml heated-killed mycobacterium tuberculosis H37Ra. Mice are injected s.c. with 0.2 ml of peptide emulsion in the abdominal flank (0.1 ml on each side). On the same day and 72 hr later, mice are injected i.v. with 100 μl of 35 ng and 50 ng of Bordetella Pertussis toxin in saline respectively.
(§4) Treatment IVL984 or HMR1031 or vehicle control only: 0.2% Hydroxypropyl Methylcellulose) started 7 days after immunization, before the first EAE symptoms appeared.
(§5) EAE mice treated with HMR1031A, 50 mg/kg, q.d., s.c. for 14 days from day 7
(§6) EAE mice treated with IVL984 50 mg/kg, q.d., s.c. for 14 days from day 7
Brain was divided into two halves and each half was placed in a steril 1.5 ml tube. 0.5 ml TRIzol was added to each tube and the tissue was homogenized using a hand held tissue homogenizer. After homogenization, another 0.5 ml of TRIzol was added to each tube and the samples were incubated for 5 minutes at room temperature to permit complete dissociation of nucleoprotein complexes.
0.2 ml of Chloroform (Sigma) was added to each tube and vortexed. Samples were incubated for an additional 5 minutes at room temperature and then centrifuged at 12,000×g for 15 minutes at 4° C.
The upper aqueous phase was transferred into a fresh, steril tube and the two sample halves per mouse were combined. 0.5 ml isopropylalcohol was added to each combined sample, vortexed and incubated at room temperature for 10 minutes. The samples were then centrifuged at 12,000×g at 4° C. […]
(§7) The final pellets were briefly air dried and resuspended in nuclease-free, sterile water. […] The concentration was determined by measuring the absorbance at 260 nm.
Taqman primers were ordered for Mus musculus mRNA for macrophage mannose receptor (Accession number: Z11974). […] The results were normalized to 18S and expressed as logarithm base 2 of copy number difference with 18S RNA levels. […]

JAB or SOCS-1 protein = assay: FACS analysis of SOCS-1 (JAB) protein in spleen cells of treated EAE mice; settings: 50 mg/kg q.d. s.c. for 14 days from day 7, FACS with C- and N-terminal antibodies, vs vehicle
Text: In these experiments, EAE (experimental allergic encephalomyelitis) mice as well as KO and wt mice of the present invention were used. The EAE mouse is an animal model for Central Nervous System (CNS) autoimmune disease. It is widely used as a human Multiple Sclerosis (MS) model.
EAE mice (see protocol below) vehicle only treated and treated with IVL984 for 14 days (5 mice per group) as well as 5 alpha-4 integrin KO mice of the present invention and 4 wt mice of the same genetic background were sacrificed by cervical dislocation. The spleen was aseptically removed and placed in a 15 ml centrifuge tube containing RPMI 1640 medium with 1% FCS. The spleens were then individually meshed in a 10 cm petri dish through a sterile wire screen using a sterile rubber policeman (0.23 mm pore size screen, Thomas Scientific). The screen was washed and the cell suspension collected and transferred into a 15 ml centrifuge tube. After centrifugation at 1200 rpm for 10 minutes at 4° C., the supernatant was decanted and the red blood cells lysed with 1 ml/spleen ice-cold red blood cell lysis buffer for 1-3 minutes on ice. The supernatant was then carefully transferred into a fresh 15 ml centrifuge tube, leaving the fat pellet behind. […] The number of alive cells was determined using a hemacytometer (Hauser Scientific) and Trypan Blue (Gibco, Life Technologies) as the dye. […]

EST AA571535 = assay: Taqman analysis of EST AA571535 in brain and spleen of treated EAE mice
Procedure: as §1, §2, §3, §4, §5, §6
(§8) Brain was divided into two halves and each half was placed in a sterile 1.5 ml tube. 0.5 ml TRIzol was added to each tube and the tissue was homogenized using a hand held tissue homogenizer. […]
as §7
(§9) Taqman primers were ordered for the EST with the accession number AA571535 (EST AA571535 (sequence for the EST: SEQ ID NO 18). Primers for the real time Taqman PCR studies were chosen using Primer Express software (Perkin Elmer) and synthesized by Sigma Genosys. The sequences of the forward and reverse primers were AGCAGCCATGGGAGGCA (SEQ ID NO: 19) and TCCGTTTCCCCACAGCAC (SEQ ID NO: 20) respectively. PCR product was run on the 4% agarose gel to confirm presence of a single band. PCR reactions were run on ABI Prizm System 7700 sequence detector (Perkin-Elmer) using CybrGreen PCR Core Reagents Kit (Perkin-Elmer) according to the manufacturer's protocol. […] The results were normalized to 18S and expressed as logarithm base 2 of copy number difference with18S RNA levels. […]

EST AA154371 = assay: Taqman analysis of EST AA154371 in brain and spleen of treated EAE mice
Procedure: as §1, §2
as §3, with “respectively. Treatment IVL984 or HMR1031 or vehicle control only: 0.2% Hydroxypropyl Methylcellulose) started 7 days after immunization, before the first EAE symptoms appeared.” for “respectively.”
as §5, §6, §8, §7
as §9, with “AA154371” for “AA571535”, “21).” for “18).”, “GACAGGGCTGAGGATTCGG” for “AGCAGCCATGGGAGGCA”, “22)” for “19)”, “TCCGTTTCCCCACAGCAC” left out, “23)” for “20)”

[2] = EAE mice, 50 mg/kg q.d. s.c. for 14 days from day 7, brain, vs vehicle control
[3] = EAE mice, 50 mg/kg q.d. s.c. for 14 days from day 7, spleen, vs vehicle control
[4] = bodily samples of treated EAE mice, tissue not given

SMILES: COc1cc(CC(=O)Nc2ccc([C@@H](CC(=O)O)NC(=O)CCCC(=O)O)cc2)ccc1NC(=O)Nc1ccccc1C [IVL 984]
- Macrophage mannose receptor, Brain [1, 2]: Tendency (The decrease in macrophage mannose receptor mRNA levels is a statistically significant, a probability rate of 5-15%.)
- Macrophage mannose receptor, Spleen [1, 3]: — (The changes in mRNA levels are statisically significant at a probability rate of higher than 15% (not significant).)
- macrophage mannose receptor mRNA levels in comparison to vehicle control mice ([1]; EAE mice, brain samples): statistically significant lower
- levels of the genetic marker macrophage mannose receptor mRNA [1, 4]: decreased levels of expression
- levels of JAB or SOCS-1 protein (JAB or SOCS-1 protein): decreased levels of expression on the protein level
- EST AA 571535, Brain (EST AA571535; [2]): — (The changes in mRNA levels are statistically significant at a probability rate of higher than 15% (not significant).)
- EST AA 571535, Spleen (EST AA571535; [3]): — (The changes in mRNA levels are statistically significant at a probability rate of higher than 15% (not significant).)
- EST AA571535 mRNA levels in comparison to vehicle control mice (EST AA571535; EAE mice, brain samples): statistically significant lower
- levels of the genetic marker EST AA571535 (EST AA571535; [4]): decreased levels of expression
- EST AA 154371, Brain (EST AA154371; [2]): ✓ (Statistically significant decrease in macrophage mannose receptor mRNA or protein levels with a 5% or lower probability rate in treated mice compared to vehicle control mice.)
- EST AA 154371, Spleen (EST AA154371; [3]): ✓ (Statistically significant decrease in macrophage mannose receptor mRNA or protein levels with a 5% or lower probability rate in treated mice compared to vehicle control mice.)
- EST AA154371 mRNA levels in comparison to vehicle control mice (EST AA154371; EAE mice, brain samples): statistically significant lower
- levels of the genetic marker EST AA154371 (EST AA154371; [4]): decreased levels of expression
